Measured values published in US20230180804A1, “FLAVOR COMPOSITION, AND FOOD AND BEVERAGE” (TAKASAGO INTERNATIONAL CORPORATION, priority 2020, published 2023).

Tests used:
olfactory receptor OR9Q2 = target: T1, olfactory receptor OR9Q2 (Homo sapiens, UniProt Q8NGE9); assay: OR9Q2 response inhibitory effect for p-cresol, luciferase reporter gene assay; format: cell-based; details: p-cresol 100 µM mixed with various concentrations of compound; cells expressing OR9Q2; ratio of Fold Increase value (FIGS. 1 to 11)
T1 construct: 20 N-terminal amino acid residues of bovine rhodopsin (Rho tag); expressed in transfected cells; host or cells: HEK293T
T1 sequence (Q8NGE9 1-314): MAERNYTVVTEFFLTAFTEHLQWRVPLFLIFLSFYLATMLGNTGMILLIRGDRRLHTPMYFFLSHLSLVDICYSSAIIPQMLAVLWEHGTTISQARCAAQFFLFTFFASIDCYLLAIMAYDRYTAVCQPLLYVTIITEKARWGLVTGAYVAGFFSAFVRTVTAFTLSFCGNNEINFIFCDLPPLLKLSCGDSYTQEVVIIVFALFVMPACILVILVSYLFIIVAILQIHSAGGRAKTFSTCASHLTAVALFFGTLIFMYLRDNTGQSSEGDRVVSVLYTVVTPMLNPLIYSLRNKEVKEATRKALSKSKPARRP
Description: The human olfactory receptor gene was obtained by cloning from Human Genomic DNA: Female (Promega) by PCR method based on the sequence information registered in GenBank. The 20 N-terminal amino acid residues of bovine rhodopsin were incorporated into the pME18S vector, and the obtained human olfactory receptor gene was incorporated downstream thereof to obtain a human olfactory receptor gene expression vector.
In 10 µL of Opti-MEM I (gibco), 0.05 µg of human olfactory receptor gene expression vector, 0.01 µg of RTP1S vector, 0.01 µg firefly luciferase vector pGL4.29 (Promega) containing cAMP response element promoter, and 0.005 µg of Renilla luciferase vector pGL4.74 (Promega) containing thymidine kinase promoter were dissolved to prepare a gene solution (for one well). HEK293T cells were seeded at 100 µL each in a 96-well plate (Biocoat, Coming) at the number of cells reaching confluence after 24 hours, and a gene solution was added to each well by the lipofection method according to the usage of Lipofectamine 3000 to introduce genes into the cells, and the cells were cultured at 37° C. in a 5% carbon dioxide atmosphere for 24 hours.
After removing the culture medium, the resultant was prepared with CD293 (gibco) medium ([…] added) so as to have a concentration for measuring the aroma substance to be tested, 50 µL of which was added each and stimulated for 3 hours, and then luciferase activity was measured according to the method of using the Dual-Luciferase Reporter Assay System (Promega). The response intensity of the olfactory receptor polypeptide was expressed as a Fold Increase value obtained by dividing the luciferase activity produced by stimulating the aroma substance by the luciferase activity produced in the test system containing no aroma substance.
p-Cresol at 100 µM was mixed with various concentrations of 1-oxacycloheptadecan-7-en-2-one, 1-oxacycloheptadecan-8-en-2-one, isoambrettolide, pentalide, muscone, civetone, 8-2-decenolactone, cinnamic aldehyde, […], sclareolide, and ethyl maltol, and receptor responses were measured in cells expressing OR9Q2. The ratio of the Fold Increase value in the test in which each compound was mixed was calculated, where the Fold Increase value in the test in none of these compounds was mixed was set to 100. FIGS. 1 to 11 present the results.

[1] = Sensory evaluation of p-cresol odor masking in p-cresol-containing citrus-flavored beverage; details: for p-Cresol Odor Intensity: beverage with 50 ppb p-cresol, average score of 7 panelists, scale 0-4; for concentration at which the compound masks the p-cresol odor and does not affect the citrus flavor, lower limit / concentration at which the compound masks the p-cresol odor and does not affect the citrus flavor, upper limit: citrus-flavored beverage with 50 ppb p-cresol
Description: To 2 g of lemon flavor obtained by making lemon oil into an essence, purified water was added to adjust the total amount to 1000 ml. To this citrus-flavored beverage, p-cresol adjusted to a concentration of 1% by mass with 95% ethanol was added to 50 ppb in the citrus-flavored beverage. To this p-cresol-containing citrus-flavored beverage, 1-oxacycloheptadecan-7-en-2-one was added at the concentrations presented in Table 1 to confirm the p-cresol odor intensity (masking effect) and the influence on the citrus flavor of each sample.
For the test, seven skilled panelists were selected to perform sensory evaluation. The p-cresol odor intensity of the p-cresol-containing citrus-flavored beverage without added l-oxacycloheptadecan-7-en-2-one was determined as “Rating: 4,” and the p-cresol odor intensity of the p-cresol-free citrus-flavored beverage was determined as “Rating: 0,” and the p-cresol odor intensity (masking effect) of each sample was relatively evaluated according to the following evaluation criteria.
In addition, the influence of the citrus-flavored beverage on the citrus flavor was evaluated absolutely according to the following evaluation criteria for the presence or absence of off- flavor other than p-cresol odor and citrus flavor (Off-Flavor Intensity).
The results are as in Table 1, presenting the average score of the evaluation results for each panelist.

[2] = Sensory evaluation of p-cresol odor masking in p-cresol-containing citrus-flavored confectionery (tablet); details: for p-Cresol Odor Intensity: tablet with 200 ppb p-cresol, average score of 6 panelists, scale 0-4
Description: Lemon cold-pressed oil was added to the tablet having the composition presented in Table A at a concentration of 1 % by mass, and medium chain fatty acid triglycerides (MCT) was used to adjust p-cresol to a concentration of 0.1%, which was further added so as to reach 200 ppb in the citrus flavored confectionery. To this p-cresol-containing citrus-flavored confectionery, 1-oxacycloheptadecan-7-en-2-one was added at the concentrations presented in Table 12, and then tableting was performed to confirm the p-cresol odor intensity (masking effect) and the influence on the citrus flavor of each sample.
Six skilled panelists were selected to perform the same sensory evaluation as in Example 1. The results are as in Table 12, presenting the average score of the evaluation results for each panelist.

[3] = citrus-flavored confectionery (tablet) with 200 ppb p-cresol

Row | Compound | effect of suppressing the response of OR9Q2 to p-cresol (olfactory receptor OR9Q2) | p-Cresol Odor Intensity ([1]; 1 ppb added) [points] | p-Cresol Odor Intensity ([1]; 1 ppm added) [points] | p-Cresol Odor Intensity ([1]; 1 ppt added) [points] | p-Cresol Odor Intensity ([1]; 10 ppb added) [points] | p-Cresol Odor Intensity ([1]; 10 ppm added) [points] | p-Cresol Odor Intensity ([1]; 10 ppt added) [points] | p-Cresol Odor Intensity ([1]; 100 ppb added) [points] | p-Cresol Odor Intensity ([1]; 100 ppt added) [points] | concentration at which the compound masks the p-cresol odor and does not affect the citrus flavor, lower limit [1] [ppt] | concentration at which the compound masks the p-cresol odor and does not affect the citrus flavor, upper limit [1] | p-Cresol Odor Intensity ([1]; 0.001 ppt added) [points] | p-Cresol Odor Intensity ([1]; 0.01 ppt added) [points] | p-Cresol Odor Intensity ([1]; 0.1 ppt added) [points] | further results
1 | CCCCCC1CC=CC(=O)O1 (centres unmarked) [δ-2-Decenolactone, δ-2-decenolactone] | suppressing the response of OR9Q2 to p-cresol in a concentration-dependent manner | 2.3 | 1.3 | 3.9 | 2.0 | 0.7 | 2.7 | 1.6 | 2.4 | ≥ 10 | ≤ 100 ppb | – | – | – | –
2 | CC1(C)CCC[C@]2(C)[C@H]3CC(=O)O[C@]3(C)CC[C@@H]12 [Sclareolide, sclareolide] | suppressing the response of OR9Q2 to p-cresol in a concentration-dependent manner | 2.1 | 1.0 | – | 1.9 | 0.4 | 3.6 | 1.1 | 2.6 | ≥ 100 | ≤ 1 ppm | – | – | – | –
3 | O=C1CCCCCCC/C=C\CCCCCCC1 [Civetone, civetone] | suppressing the response of OR9Q2 to p-cresol in a concentration-dependent manner | 1.0 | – | 1.9 | 0.9 | – | 1.6 | 0.4 | 1.1 | ≥ 0.01 | ≤ 1 ppb | 3.7 | 2.7 | 2.3 | –
4 | O=C/C=C/c1ccccc1 [Cinnamic Aldehyde, cinnamic aldehyde] | suppressing the response of OR9Q2 to p-cresol in a concentration-dependent manner | 2.3 | 1.7 | – | 2.0 | 0.9 | 3.9 | 2.0 | 2.7 | ≥ 100 | ≤ 10 ppm | – | – | – | p-Cresol Odor Intensity ([1]; 100 ppm added): 0.6 points
5 | C[C@@H]1CCCCCCCCCCCCC(=O)C1 [Muscone, muscone] | suppressing the response of OR9Q2 to p-cresol in a concentration-dependent manner | 0.9 | – | 2.1 | 0.4 | – | 1.9 | 0.3 | 1.7 | ≥ 0.01 | ≤ 1 ppb | 3.7 | 2.7 | 2.4 | –
6 | O=C1CCCCCCC/C=C\CCCCCCO1 [Isoambrettolide, isoambrettolide] | suppressing the response of OR9Q2 to p-cresol in a concentration-dependent manner | 1.3 | – | 2.4 | 1.3 | – | 2.1 | 0.9 | 1.6 | ≥ 0.1 | ≤ 1 ppb | – | 3.7 | 2.7 | p-Cresol Odor Intensity ([2]; 4 ppb added): 2.5 points; p-Cresol Odor Intensity ([2]; 40 ppb added): 1.8 points; p-Cresol Odor Intensity ([2]; 40 ppt added): 3.0 points; p-Cresol Odor Intensity ([2]; 400 ppb added): 1.5 points; p-Cresol Odor Intensity ([2]; 400 ppt added): 2.7 points; concentration at which the compound masks the p-cresol odor and does not affect the citrus flavor, lower limit [2, 3]: ≥ 400 ppt; concentration at which the compound masks the p-cresol odor and does not affect the citrus flavor, upper limit [2, 3]: ≤ 400 ppb
